# The NIST ThermoML archive (doi:10.1016/j.fluid.2016.05.030)
# ± gives the expanded uncertainty stated by the source.
# Experiments:
# [1] = 101.33 kPa, Liquid; for viscosity: Concentric cylinders viscometry; for mass density: Vibrating tube method
# [2] = molar heat capacity at constant pressure; settings: 298.15 K; 101.33 kPa; Liquid; Drop calorimetry
Structure (SMILES),viscosity ([1]; 293.15 K) [mPa·s],mass density ([1]; 293.15 K) [kg/m3],viscosity ([1]; 298.15 K) [mPa·s],mass density ([1]; 298.15 K) [kg/m3],viscosity ([1]; 303.15 K) [mPa·s],mass density ([1]; 303.15 K) [kg/m3],viscosity ([1]; 308.15 K) [mPa·s],mass density ([1]; 308.15 K) [kg/m3],viscosity ([1]; 313.15 K) [mPa·s],mass density ([1]; 313.15 K) [kg/m3],viscosity ([1]; 318.15 K) [mPa·s],mass density ([1]; 318.15 K) [kg/m3],viscosity ([1]; 323.15 K) [mPa·s],mass density ([1]; 323.15 K) [kg/m3],viscosity ([1]; 328.15 K) [mPa·s],mass density ([1]; 328.15 K) [kg/m3],viscosity ([1]; 333.15 K) [mPa·s],mass density ([1]; 333.15 K) [kg/m3],viscosity ([1]; 338.15 K) [mPa·s],molar heat capacity at constant pressure [2] [J/K/mol],also measured
CCCCCCCc1cccc[n+]1CC.O=S(=O)([N-]S(=O)(=O)C(F)(F)F)C(F)(F)F,180.53 ± 3.3,1325.1 ± 1.1,134.1 ± 1.9,1320.8 ± 1.1,102.47 ± 1.1,1316.5 ± 1.1,79.9 ± 0.67,1312.2 ± 1.1,63.6 ± 0.4,1307.9 ± 1.1,51.17 ± 0.27,1303.6 ± 1.1,41.88 ± 0.26,1299.4 ± 1.1,34.73 ± 0.21,1295.2 ± 1.1,29.21 ± 0.18,1290.9 ± 1.1,24.71 ± 0.15,717.5 ± 17,mass density ([1]; 338.15 K): 1286.7 ± 1.1 kg/m3; viscosity ([1]; 343.15 K): 21.16 ± 0.13 mPa·s; mass density ([1]; 343.15 K): 1282.5 ± 1.1 kg/m3; viscosity ([1]; 348.15 K): 18.28 ± 0.11 mPa·s; mass density ([1]; 348.15 K): 1278.3 ± 1.1 kg/m3; viscosity ([1]; 353.15 K): 15.97 ± 0.098 mPa·s; mass density ([1]; 353.15 K): 1274.2 ± 1.1 kg/m3; viscosity ([1]; 358.15 K): 13.97 ± 0.086 mPa·s; mass density ([1]; 358.15 K): 1270.1 ± 1.1 kg/m3; viscosity ([1]; 363.15 K): 12.34 ± 0.076 mPa·s; mass density ([1]; 363.15 K): 1266 ± 1.1 kg/m3
CCCCCCCCCc1cccc[n+]1CC.O=S(=O)([N-]S(=O)(=O)C(F)(F)F)C(F)(F)F,,,,,,,,,,,,,,,,,,,,778.5 ± 18,
CCCCCCCCCCc1cccc[n+]1CC.O=S(=O)([N-]S(=O)(=O)C(F)(F)F)C(F)(F)F,,,,,,,,,,,,,,,,,,,,811.2 ± 19,
CCCc1cccc[n+]1CC.O=S(=O)([N-]S(=O)(=O)C(F)(F)F)C(F)(F)F,139.89 ± 2.1,1452 ± 1.2,105.02 ± 1.2,1447.2 ± 1.2,81.09 ± 0.69,1442.5 ± 1.2,63.9 ± 0.4,1437.8 ± 1.1,51.37 ± 0.27,1433.1 ± 1.1,41.8 ± 0.26,1428.4 ± 1.1,34.57 ± 0.21,1423.8 ± 1.1,28.96 ± 0.18,1419.2 ± 1.1,24.59 ± 0.15,1414.6 ± 1.1,21 ± 0.13,593.9 ± 14,mass density ([1]; 338.15 K): 1410 ± 1.1 kg/m3; viscosity ([1]; 343.15 K): 18.15 ± 0.11 mPa·s; mass density ([1]; 343.15 K): 1405.4 ± 1.1 kg/m3; viscosity ([1]; 348.15 K): 15.82 ± 0.097 mPa·s; mass density ([1]; 348.15 K): 1400.9 ± 1.1 kg/m3; viscosity ([1]; 353.15 K): 13.94 ± 0.085 mPa·s; mass density ([1]; 353.15 K): 1396.4 ± 1.1 kg/m3; viscosity ([1]; 358.15 K): 12.3 ± 0.075 mPa·s; mass density ([1]; 358.15 K): 1391.9 ± 1.1 kg/m3; viscosity ([1]; 363.15 K): 10.95 ± 0.067 mPa·s; mass density ([1]; 363.15 K): 1387.5 ± 1.1 kg/m3
CCCCCc1cccc[n+]1CC.O=S(=O)([N-]S(=O)(=O)C(F)(F)F)C(F)(F)F,144.37 ± 2.2,1375.6 ± 1.1,108.78 ± 1.3,1371.1 ± 1.1,83.99 ± 0.75,1366.6 ± 1.1,66.14 ± 0.43,1362.2 ± 1.1,53 ± 0.28,1357.8 ± 1.1,43.06 ± 0.27,1353.4 ± 1.1,35.52 ± 0.22,1349 ± 1.1,29.65 ± 0.18,1344.6 ± 1.1,25.11 ± 0.15,1340.2 ± 1.1,21.4 ± 0.13,652.7 ± 15,mass density ([1]; 338.15 K): 1335.8 ± 1.1 kg/m3; viscosity ([1]; 343.15 K): 18.44 ± 0.11 mPa·s; mass density ([1]; 343.15 K): 1331.5 ± 1.1 kg/m3; viscosity ([1]; 348.15 K): 16.02 ± 0.098 mPa·s; mass density ([1]; 348.15 K): 1327.1 ± 1.1 kg/m3; viscosity ([1]; 353.15 K): 14.06 ± 0.086 mPa·s; mass density ([1]; 353.15 K): 1322.8 ± 1.1 kg/m3; viscosity ([1]; 358.15 K): 12.36 ± 0.076 mPa·s; mass density ([1]; 358.15 K): 1318.6 ± 1.1 kg/m3; viscosity ([1]; 363.15 K): 10.97 ± 0.068 mPa·s; mass density ([1]; 363.15 K): 1314.3 ± 1.1 kg/m3
"CCc1cccc[n+]1CC.O=S(=O)([N-]S(=O)(=O)C(F)(F)F)C(F)(F)F [1,2-diethylpyridin-1-ium bis((trifluoromethyl)sulfonyl)imide]",87.87 ± 0.82,1475.5 ± 1.2,68.77 ± 0.47,1470.6 ± 1.2,54.95 ± 0.3,1465.8 ± 1.2,44.69 ± 0.28,1461.1 ± 1.2,36.91 ± 0.23,1456.3 ± 1.2,30.88 ± 0.19,1451.6 ± 1.2,26.16 ± 0.16,1446.9 ± 1.2,22.38 ± 0.14,1442.2 ± 1.2,19.4 ± 0.12,1437.5 ± 1.1,16.9 ± 0.1,566.1 ± 13,mass density ([1]; 338.15 K): 1432.9 ± 1.1 kg/m3; viscosity ([1]; 343.15 K): 14.86 ± 0.091 mPa·s; mass density ([1]; 343.15 K): 1428.3 ± 1.1 kg/m3; viscosity ([1]; 348.15 K): 13.16 ± 0.08 mPa·s; mass density ([1]; 348.15 K): 1423.7 ± 1.1 kg/m3; viscosity ([1]; 353.15 K): 11.75 ± 0.072 mPa·s; mass density ([1]; 353.15 K): 1419.1 ± 1.1 kg/m3; viscosity ([1]; 358.15 K): 10.52 ± 0.065 mPa·s; mass density ([1]; 358.15 K): 1414.6 ± 1.1 kg/m3; viscosity ([1]; 363.15 K): 9.483 ± 0.058 mPa·s; mass density ([1]; 363.15 K): 1410 ± 1.1 kg/m3
CCCCc1cccc[n+]1CC.O=S(=O)([N-]S(=O)(=O)C(F)(F)F)C(F)(F)F,146.84 ± 2.3,1413.7 ± 1.1,109.82 ± 1.3,1409.1 ± 1.1,84.49 ± 0.76,1404.5 ± 1.1,66.34 ± 0.44,1400 ± 1.1,53.17 ± 0.28,1395.4 ± 1.1,43.11 ± 0.27,1390.9 ± 1.1,35.55 ± 0.22,1386.4 ± 1.1,29.7 ± 0.18,1381.9 ± 1.1,25.14 ± 0.15,1377.4 ± 1.1,21.42 ± 0.13,623.6 ± 14,mass density ([1]; 338.15 K): 1373 ± 1.1 kg/m3; viscosity ([1]; 343.15 K): 18.45 ± 0.11 mPa·s; mass density ([1]; 343.15 K): 1368.5 ± 1.1 kg/m3; viscosity ([1]; 348.15 K): 16.04 ± 0.098 mPa·s; mass density ([1]; 348.15 K): 1364.1 ± 1.1 kg/m3; viscosity ([1]; 353.15 K): 14.09 ± 0.086 mPa·s; mass density ([1]; 353.15 K): 1359.7 ± 1.1 kg/m3; viscosity ([1]; 358.15 K): 12.39 ± 0.076 mPa·s; mass density ([1]; 358.15 K): 1355.4 ± 1.1 kg/m3; viscosity ([1]; 363.15 K): 11 ± 0.068 mPa·s; mass density ([1]; 363.15 K): 1351 ± 1.1 kg/m3
CCCCCCCCc1cccc[n+]1CC.O=S(=O)([N-]S(=O)(=O)C(F)(F)F)C(F)(F)F,216.19 ± 4.4,1301.7 ± 1.1,159.29 ± 2.6,1297.4 ± 1.1,120.76 ± 1.6,1293.2 ± 1.1,93.45 ± 0.94,1289 ± 1.1,73.88 ± 0.56,1284.8 ± 1.1,59 ± 0.34,1280.6 ± 1.1,47.97 ± 0.3,1276.4 ± 1.1,39.54 ± 0.24,1272.3 ± 1.1,33.06 ± 0.2,1268.1 ± 1.1,27.82 ± 0.17,749.4 ± 17,mass density ([1]; 338.15 K): 1264 ± 1.1 kg/m3; viscosity ([1]; 343.15 K): 23.71 ± 0.14 mPa·s; mass density ([1]; 343.15 K): 1259.9 ± 1.1 kg/m3; viscosity ([1]; 348.15 K): 20.39 ± 0.12 mPa·s; mass density ([1]; 348.15 K): 1255.8 ± 1.1 kg/m3; viscosity ([1]; 353.15 K): 17.72 ± 0.11 mPa·s; mass density ([1]; 353.15 K): 1251.7 ± 1.1 kg/m3; viscosity ([1]; 358.15 K): 15.44 ± 0.094 mPa·s; mass density ([1]; 358.15 K): 1247.6 ± 1.1 kg/m3; viscosity ([1]; 363.15 K): 13.58 ± 0.083 mPa·s; mass density ([1]; 363.15 K): 1243.6 ± 1.1 kg/m3
CCCCCCc1cccc[n+]1CC.O=S(=O)([N-]S(=O)(=O)C(F)(F)F)C(F)(F)F,159.82 ± 2.7,1348.7 ± 1.1,119.41 ± 1.6,1344.3 ± 1.1,91.77 ± 0.91,1339.9 ± 1.1,71.93 ± 0.53,1335.5 ± 1.1,57.52 ± 0.33,1331.2 ± 1.1,46.51 ± 0.29,1326.8 ± 1.1,38.22 ± 0.23,1322.5 ± 1.1,31.83 ± 0.2,1318.2 ± 1.1,26.87 ± 0.16,1313.9 ± 1.1,22.8 ± 0.14,685.5 ± 16,mass density ([1]; 338.15 K): 1309.7 ± 1.1 kg/m3; viscosity ([1]; 343.15 K): 19.59 ± 0.12 mPa·s; mass density ([1]; 343.15 K): 1305.6 ± 1.1 kg/m3; viscosity ([1]; 348.15 K): 16.98 ± 0.1 mPa·s; mass density ([1]; 348.15 K): 1301.4 ± 1.1 kg/m3; viscosity ([1]; 353.15 K): 14.86 ± 0.091 mPa·s; mass density ([1]; 353.15 K): 1297.1 ± 1.1 kg/m3; viscosity ([1]; 358.15 K): 13.04 ± 0.08 mPa·s; mass density ([1]; 358.15 K): 1292.9 ± 1.1 kg/m3; viscosity ([1]; 363.15 K): 11.54 ± 0.071 mPa·s; mass density ([1]; 363.15 K): 1288.8 ± 1.1 kg/m3
